In patent US12187713B2, “Immunomodulators, compositions and methods thereof” (Betta Pharmaceuticals Co., Ltd, priority 2019, dated 2025):

Key:
[1] = Pharmacokinetic Assay, single oral dose 5 mg/kg (Table 12); format: in vivo; details: mouse, plasma concentration, C57 female mice, single oral dose 5 mg/kg
Protocol: Adult C57 female mice were received to single-dose of the test compounds with 15% DMSO, 10% Kolliphor^@HS 15 and 75% saline as excipients, the mice (n=3) were giving oral administration (intragastric administration) with the compounds at a dose of 5 mg/kg. Time of blood collection: 30 min, 2 h, 4 h. approximately 0.1 mL of whole blood was collected from retro-orbital venous plexus, and placed into tubes that contained K2-EDTA as an anticoagulant. The whole blood were centrifuged at 4° C. and 4000 rpm for 10 min. The plasma was transferred into centrifuge tubes, and stored at −20° C. until being analyzed. Concentrations of test compounds in the plasma samples were analyzed with liquid chromatography-tandem mass spectrometry (LC-MS/MS). Plasma concentration-time data of individual animals was analyzed using Microsoft Excel 2010.

[2] = molecular target: PD-1/PD-L1 (Homo sapiens (Human), UniProt Q9NZQ7); assay: PD-1/PD-L1 Binding Assay (Alphascreen)
Chain of PD-1/PD-L1 (Q9NZQ7 19-238): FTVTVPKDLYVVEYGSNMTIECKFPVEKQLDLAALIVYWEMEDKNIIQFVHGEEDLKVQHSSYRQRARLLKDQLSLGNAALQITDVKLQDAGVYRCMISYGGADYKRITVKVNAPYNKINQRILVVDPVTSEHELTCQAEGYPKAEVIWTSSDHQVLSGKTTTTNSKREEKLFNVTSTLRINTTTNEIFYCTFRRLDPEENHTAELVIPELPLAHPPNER
In short: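 PD-1/PD-L1 binding detected by anti-6×His acceptor and streptavidin donor beads after 120 min in the dark at 25 °C. Beforehand, the two proteins were incubated 15 min at 25 °C with inhibitor at 0.015–300 nM (1% DMSO). IC50 comes from a log concentration–response curve.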

| Structure (SMILES) | concentration at 0.5 h [1] | concentration at 2 h [1] | concentration at 4 h [1] | IC50 ([2]; numeric values) | IC50 ([2]; range symbols) |
| --- | --- | --- | --- | --- | --- |
| Cc1c(-c2nc3cc(CN4CCC[C@H]4C(=O)O)c(OC(F)F)cc3o2)cccc1-c1cccc(-c2nc3cc(CN4CC[C@@H](C)C4)cnc3o2)c1C [Example 114, ((6-(difluoromethoxy)-2-(2,2′-dimethyl-3′-(6-(((R)-3-methylpyrrolidin-1-yl)methyl)oxazolo [5,4-b]pyridin-2-yl)-[1,1′-biphenyl]-3-yl)benzo[d]oxazol-5-yl)methyl)-L-proline] | 65.6 ng/mL | 237 ng/mL | 152 ng/mL | 1 nM | – |
| Cc1c(-c2nc3cc(CN4CCC[C@H]4C(=O)O)c(OC(F)F)cc3o2)cccc1-c1cccc(-c2nc3cc(CN4CCCC4)c(F)c(F)c3o2)c1C [Example 102, ((2-(3′-(6,7-difluoro-5-(pyrrolidin-1-ylmethyl)benzo[d]oxazol-2-yl)-2,2′-dimethyl-[1,1′-biphenyl]-3-yl)-6-(difluoromethoxy)benzo[d]oxazol-5-yl)methyl)-L-proline] | 85.9 ng/mL | 282 ng/mL | 292 ng/mL | 18 nM | – |
| Cc1c(-c2nc3cc(CN4CCC[C@H]4C(=O)O)c(OC(F)F)cc3o2)cccc1-c1cccc(-c2nc3cc(CN4CC[C@@H](C)C4)cc(C#N)c3o2)c1C [Example 131, ((2-(3′-(7-cyano-5-(((R)-3-methylpyrrolidin-1-yl)methyl)benzo[d]oxazol-2-yl)-2,2′-dimethyl-[1,1′-biphenyl]-3-yl)-6-(difluoromethoxy)benzo[d]oxazol-5-yl)methyl)-L-proline] | 108 ng/mL | 301 ng/mL | 470 ng/mL | 2.3 nM | – |
| Cc1c(-c2nc3cc(CN(C)[C@@H]4CCC[C@H]4O)c(OC(F)F)cc3o2)cccc1-c1cccc(-c2nc3cc(CN4CCC[C@H]4C(=O)O)c(OC(F)F)cc3o2)c1C [Example 57, ((6-(difluoromethoxy)-2-(3′-(6-(difluoromethoxy)-5-((((1R,2R)-2-hydroxycyclopentyl) (methyl)amino)methyl)benzo[d]oxazol-2-yl)-2,2′-dimethyl-[1,1′-biphenyl]-3-yl)benzo[d]oxazol-5-yl)methyl)-L-proline] | 27.1 ng/mL | 149 ng/mL | 90 ng/mL | 1.2 nM | – |
| C#CC1(O)CN(Cc2cc(C#N)c3oc(-c4cccc(-c5cccc(-c6nc7cc(CN8CCC[C@H]8C(=O)O)c(OC(F)F)cc7o6)c5C)c4C)nc3c2)C1 [Example 144, ((2-(3′-(7-cyano-5-((3-ethynyl-3-hydroxyazetidin-1-yl)methyl)benzo[d]oxazol-2-yl)-2,2′-dimethyl-[1,1′-biphenyl]-3-yl)-6-(difluoromethoxy)benzo[d]oxazol-5-yl)methyl)-L-proline] | 243 ng/mL | 386 ng/mL | 222 ng/mL | – | 0.1 to 5 nM |

Second part, the compound after the results:

| concentration at 0.5 h [1] | concentration at 2 h [1] | concentration at 4 h [1] | IC50 ([2]; numeric values) | IC50 ([2]; range symbols) | Structure (SMILES) |
| --- | --- | --- | --- | --- | --- |
| 33.6 ng/mL | 171 ng/mL | 113 ng/mL | 5.7 nM | – | Cc1c(-c2nc3cc(CN4CCC[C@H]4C(=O)O)c(OC(F)F)cc3o2)cccc1-c1cccc(-c2ccc(CN3CCCC3)s2)c1C [Example 280, ((6-(difluoromethoxy)-2-(2,2′-dimethyl-3′-(5-(pyrrolidin-1-ylmethyl)thiophen-2-yl)-[1,1′-biphenyl]-3-yl)benzo[d]oxazol-5-yl)methyl)-L-proline] |
| 20.5 ng/mL | 73.8 ng/mL | 52.2 ng/mL | – | 0.1 to 5 nM | COc1nc(-c2cccc(-c3cccc(-c4nc5cc(CN6CCC[C@H]6C(=O)O)c(OC(F)F)cc5o4)c3C)c2C)cnc1CN1CC[C@@H](C)C1 [Example 286, ((6-(difluoromethoxy)-2-(3′-(6-methoxy-5-(((R)-3-methylpyrrolidin-1-yl)methyl)pyrazin-2-yl)-2,2′-dimethyl-[1,1′-biphenyl]-3-yl)benzo[d]oxazol-5-yl)methyl)-L-proline] |
| 520 ng/mL | 1170 ng/mL | 1330 ng/mL | – | 5 to 50 nM | Cc1c(-c2nc3c(o2)CCN(CCCC(F)(F)F)C3)cccc1-c1cccc(-c2nc3cc(CN4CCC[C@H]4C(=O)O)c(OC(F)F)cc3o2)c1C [Example 191, ((6-(difluoromethoxy)-2-(2,2′-dimethyl-3′-(5-(4,4,4-trifluorobutyl)-4,5,6,7-tetrahydrooxazolo[4,5-c]pyridin-2-yl)-[1,1′-biphenyl]-3-yl)benzo[d]oxazol-5-yl)methyl)proline] |
| 66.1 ng/mL | 198 ng/mL | 141 ng/mL | 1.9 nM | – | COc1nc(-c2cccc(-c3cccc(-c4nc5cc(CN6CCC[C@H]6C(=O)O)c(OC(F)F)cc5o4)c3C)c2C)ccc1CN1CC[C@@H](C)C1 [Example 272, ((6-(difluoromethoxy)-2-(3′-(6-methoxy-5-(((R)-3-methylpyrrolidin-1-yl)methyl)pyridin-2-yl)-2,2′-dimethyl-[1,1′-biphenyl]-3-yl)benzo[d]oxazol-5-yl)methyl)-L-proline] |
| 36.9 ng/mL | 160 ng/mL | 156 ng/mL | 78 nM | – | Cc1c(-c2nc3cc(CN4CCC[C@H]4C(=O)O)c(OC(F)F)cc3o2)cccc1-c1cccc(-c2ccc(CN3CCCC3)cc2Cl)c1C [Example 231, ((2-(2″-chloro-2,2′-dimethyl-4″-(pyrrolidin-1-ylmethyl)-[1,1′:3′,1″-terphenyl]-3-yl)-6-(difluoromethoxy)benzo[d]oxazol-5-yl)methyl)-L-proline] |
| 277 ng/mL | 670 ng/mL | 441 ng/mL | – | 5 to 50 nM | Cc1c(-c2nc3cc(CN4CCC[C@H]4C(=O)O)c(OC(F)F)cc3o2)cccc1-c1cccc(-c2nc3cc(CN4CCC(F)C4)cc(C#N)c3o2)c1C (stereo partly drawn) [Example 162, ((2-(3′-(7-cyano-5-((3-fluoropyrrolidin-1-yl)methyl)benzo[d]oxazol-2-yl)-2,2′-dimethyl-[1,1′-biphenyl]-3-yl)-6-(difluoromethoxy)benzo[d]oxazol-5-yl)methyl)-L-proline] |
| 819 ng/mL | 1030 ng/mL | 833 ng/mL | 12 nM | – | Cc1c(-c2nc3c(o2)CCOC3)cccc1-c1cccc(-c2nc3cc(CN4CCC[C@H]4C(=O)O)c(OC(F)F)cc3o2)c1C [Example 203, ((6-(difluoromethoxy)-2-(3′-(6,7-dihydro-4H-pyrano[3,4-d]oxazol-2-yl)-2,2′-dimethyl-[1,1′-biphenyl]-3-yl)benzo[d]oxazol-5-yl)methyl)proline] |
| 469 ng/mL | 440 ng/mL | 268 ng/mL | – | 5 to 50 nM | Cc1c(-c2nc3c(o2)CCN(CC2CCO2)C3)cccc1-c1cccc(-c2nc3cc(CN4CCC[C@H]4C(=O)O)c(OC(F)F)cc3o2)c1C (stereo partly shown) [Example 192, ((6-(difluoromethoxy)-2-(2,2′-dimethyl-3′-(5-(oxetan-2-ylmethyl)-4,5,6,7-tetrahydrooxazolo[4,5-c]pyridin-2-yl)-[1,1′-biphenyl]-3-yl)benzo[d]oxazol-5-yl)methyl)proline] |
